Key:
Experiment in all cases: relative viability (nuclei count vs DMSO), 5 days (fraction); higher = more cells survive
[1] = test system: NCI-H1666
Method in brief: (§1)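 The day after seeding in 1536-well plates, lung cancer cell lines were treated by pin tool with a single drug, or with a fixed anchor-drug dose together with five library-drug doses (not always all listed) in √10 steps. After 5 days, a combined fix-and-stain solution (final 0.05% Triton X-100, 1% formaldehyde, 1 ug/ml Hoechst) was added. Nuclei counted on 4× images gave relative viability as treated counts over vehicle counts, reported as the median of duplicate plates.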

[2] = test system: HCC-827
Method in brief: as §1

[3] = test system: EPLC-272H
Method in brief: as §1

[4] = test system: LU99A
Method in brief: as §1

[5] = test system: HOP-62
Method in brief: as §1

[6] = test system: 201T
Method in brief: as §1

[7] = test system: LCLC-97TM1
Method in brief: as §1

[8] = test system: H3255
Method in brief: as §1

[9] = test system: NCI-H2085
Method in brief: as §1

[10] = test system: EKVX
Method in brief: as §1

[11] = test system: PC-3 [JPC-3]
Method in brief: as §1

[12] = test system: NCI-H647
Method in brief: as §1

[13] = test system: NCI-H358
Method in brief: as §1

[14] = test system: NCI-H1975
Method in brief: as §1

[15] = test system: SW 1573
Method in brief: as §1

[16] = test system: NCI-H2087
Method in brief: as §1

[17] = test system: HCC-44
Method in brief: as §1

[18] = test system: BEN
Method in brief: as §1

[19] = test system: COR-L 105
Method in brief: as §1

[20] = test system: NCI-H1437
Method in brief: as §1

[21] = test system: LOU-NH91
Method in brief: as §1

Oc1nc(-c2ccc(C(F)(F)F)cc2)nc2c1CSCC2 [XAV939] + C[C@@H](Oc1cc(-c2cnn(C3CCNCC3)c2)cnc1N)c1c(Cl)ccc(F)c1Cl [Crizotinib] (partner 1 µM)
relative viability ([1]; first compound 0.08 µM): 0.971 | relative viability ([1]; first compound 0.253 µM): 0.64 | relative viability ([1]; first compound 0.8 µM): 0.781 | relative viability ([1]; first compound 2.53 µM): 0.473 | relative viability ([2]; first compound 0.08 µM): 0.897 | relative viability ([2]; first compound 0.253 µM): 0.818 | relative viability ([2]; first compound 0.8 µM): 0.887 | relative viability ([2]; first compound 2.53 µM): 0.949 | relative viability ([3]; first compound 0.08 µM): 0.956 | relative viability ([3]; first compound 0.253 µM): 0.96 | relative viability ([3]; first compound 0.8 µM): 0.995 | relative viability ([3]; first compound 2.53 µM): 0.908 | relative viability ([4]; first compound 0.08 µM): 0.539 | relative viability ([4]; first compound 0.253 µM): 0.55 | relative viability ([4]; first compound 0.8 µM): 0.567 | relative viability ([4]; first compound 2.53 µM): 0.504 | relative viability ([5]; first compound 0.08 µM): 0.972 | relative viability ([5]; first compound 0.253 µM): 0.862 | relative viability ([5]; first compound 0.8 µM): 0.906 | relative viability ([5]; first compound 2.53 µM): 0.727 | relative viability ([6]; first compound 0.08 µM): 0.995 | relative viability ([6]; first compound 0.253 µM): 1.03 | relative viability ([6]; first compound 0.8 µM): 0.94 | relative viability ([6]; first compound 2.53 µM): 0.866 | relative viability ([7]; first compound 0.08 µM): 0.488 | relative viability ([7]; first compound 0.253 µM): 0.344 | relative viability ([7]; first compound 0.8 µM): 0.361 | relative viability ([7]; first compound 2.53 µM): 0.305 | relative viability ([8]; first compound 0.08 µM): 0.942 | relative viability ([8]; first compound 0.253 µM): 0.873 | relative viability ([8]; first compound 0.8 µM): 0.725 | relative viability ([8]; first compound 2.53 µM): 0.7 | relative viability ([9]; first compound 0.08 µM): 0.961 | relative viability ([9]; first compound 0.253 µM): 0.826 | relative viability ([9]; first compound 0.8 µM): 0.917 | relative viability ([9]; first compound 2.53 µM): 0.734 | relative viability ([10]; first compound 0.08 µM): 1.09 | relative viability ([10]; first compound 0.253 µM): 0.95 | relative viability ([10]; first compound 0.8 µM): 0.975 | relative viability ([10]; first compound 2.53 µM): 0.586 | relative viability ([11]; first compound 0.08 µM): 0.936 | relative viability ([11]; first compound 0.253 µM): 0.903 | relative viability ([11]; first compound 0.8 µM): 0.966 | relative viability ([11]; first compound 2.53 µM): 0.92 | relative viability ([12]; first compound 0.08 µM): 1.07 | relative viability ([12]; first compound 0.253 µM): 1 | relative viability ([12]; first compound 0.8 µM): 1.11 | relative viability ([12]; first compound 2.53 µM): 0.9 | relative viability ([13]; first compound 0.08 µM): 0.729 | relative viability ([13]; first compound 0.253 µM): 0.45 | relative viability ([13]; first compound 0.8 µM): 0.563 | relative viability ([13]; first compound 2.53 µM): 0.573 | relative viability ([14]; first compound 0.08 µM): 1.07 | relative viability ([14]; first compound 0.253 µM): 0.666 | relative viability ([14]; first compound 0.8 µM): 0.919 | relative viability ([14]; first compound 2.53 µM): 0.737 | relative viability ([15]; first compound 0.08 µM): 0.948 | relative viability ([15]; first compound 0.253 µM): 0.85 | relative viability ([15]; first compound 0.8 µM): 0.757 | relative viability ([15]; first compound 2.53 µM): 0.646 | relative viability ([16]; first compound 0.08 µM): 0.879 | relative viability ([16]; first compound 0.253 µM): 0.998 | relative viability ([16]; first compound 0.8 µM): 0.715 | relative viability ([16]; first compound 2.53 µM): 0.797 | relative viability ([17]; first compound 0.08 µM): 0.785 | relative viability ([17]; first compound 0.253 µM): 0.796 | relative viability ([17]; first compound 0.8 µM): 0.79 | relative viability ([17]; first compound 2.53 µM): 0.75 | relative viability ([18]; first compound 0.08 µM): 0.868 | relative viability ([18]; first compound 0.253 µM): 0.788 | relative viability ([18]; first compound 0.8 µM): 0.978 | relative viability ([19]; first compound 0.08 µM): 0.821 | relative viability ([19]; first compound 0.253 µM): 0.762 | relative viability ([19]; first compound 0.8 µM): 0.698 | relative viability ([19]; first compound 2.53 µM): 0.621 | relative viability ([20]; first compound 0.08 µM): 1.03 | relative viability ([20]; first compound 0.253 µM): 0.915 | relative viability ([20]; first compound 0.8 µM): 0.947 | relative viability ([20]; first compound 2.53 µM): 0.788 | relative viability ([21]; first compound 0.08 µM): 0.719 | relative viability ([21]; first compound 0.253 µM): 0.708 | relative viability ([21]; first compound 0.8 µM): 0.734 | relative viability ([21]; first compound 2.53 µM): 0.699

Reference: the supplement of paper PMC10307832
